Laboratory results: patent US12653827B2, “Methods of treating indolent systemic mastocytosis” (Telios Pharma Inc., priority 2024, dated 2026)

Legend:
mast cells [1] = experiment: Phosphorylation and degranulation markers in antigen-stimulated mast cells grown with chronic SCF (FIG. 21); assay type: cell-based; details: 0.1-0.6 μM, antigen 15 minutes
Experimental: Histamine release, CD63 expression, CD203c expression, pBTK (Y223) levels, pP38 (T180/Y182) levels, pPLCg1 (S1248) levels, pERK (T202/Y204) levels, and pS6 (S235/236) levels are shown. Mast cells were grown with continuous (chronic) exposure to SCF and then stimulated with antigen (Ag) for 15 minutes, leading to phosphorylation of multiple kinases, including pBTK, pPLCγ1, pP38, pERK, and pS6 ribosome. This stimulation increases degranulation markers, including CD63, CD203c, and histamine release.

[2] = system: downstream signaling proteins; experiment: Downstream signaling proteins in antigen-stimulated mast cells (FIG. 20); assay type: cell-based; details: mast cells stimulated with an antigen
[3] = system: IL-8, MCP-1, MIP-1a, IL-13 and IL-10; experiment: Antigen-induced cytokine production in ISM-like and healthy mast cell conditions; assay type: cell-based, human; details: ISM-like mast cells; treated two hours, antigen four hours
Experimental: (§1) Human mast cells were derived from bone marrow CD34+ cells from six healthy donors for up to eight weeks by culturing CD34+ cells in StemSpan SFEM II (Stem Cell Technologies) supplemented with stem cell factor (SCF; 100 ng/mL; R&D System), IL-6 (R&D Systems), IL-3 (R&D Systems) and 1% penicillin/streptomycin (P/S; Gibco) for the first 10 days and in StemSpan SFEM II supplemented with SCF and IL-6 and 1% P/S for the remaining time in culture. […] Supernatant was collected and histamine levels were measured using a Histamine ELISA kit (Eagle Biosciences). […] Percent of activated mast cells was calculated as number of activated mast cells over the total number of mast cells.
Human mast cells were differentiated from bone marrow CD34+ cells from two healthy donors, cultured and sensitized in ISM-like and healthy mast cell conditions as set forth in Example 4, treated with Compound 128 for two hours and stimulated with antigen for four hours. Supernatant was collected and cytokine levels were measured using the BD Cytometric Bead Array (CBA) human soluble protein master buffer kit (Becton Dickinson) and BD CBA human soluble protein flex sets for IL-8, MCP-1, MIP-1a, IL-13 and IL-10 (Becton Dickinson). […]

[4] = system: calcium influx in mast cell; experiment: IgE-mediated calcium influx in ISM patient mast cells (FIG. 17); assay type: cell-based; details: presence of SCF
Experimental: Mast cell from an ISM patient was treated with Compound 128 at 50 mg, 75 mg, 100 mg, and 150 mg BID dose prior to antigen (Ag) stimulation. ISM 3-2 mast cell donor MC 1061-004 C1D8 D39. Experiments performed in the presence of SCF. […] Percent of Control (POC) based on Area-under-Curve above baseline (1st value).

mast cells [5] = experiment: Return of degranulation after Compound 128 exposure and washout (FIG. 18); assay type: cell-based; details: flow cytometry
Description: FIGS. 18A-D show return of degranulation after Compound 128 exposure.

basophils = experiment: Comparison of BTK inhibitors by BAT (CD63 and CD203c); assay type: cell-based, human; details: concentration of 1 μM; 2 hours; blood from a healthy donor
Experimental: The BAT assay using the Flow Cast Basophil Activation Kit (Buhlmann Diagnostics; Catalog #B-CCR-STCON) was then conducted following manufacturer instructions by (1) stimulating the blood with anti-FcεR stimulation control in stimulation buffer with IL-3 and staining cells for CCR3 and CD63 for 15 minutes at 37° C., (2) lysing red blood cells and fixing cells with Lysing Reagent at room temperature for 10 minutes, (3) washing cells with Wash Buffer, and (4) acquiring data on a flow cytometer. Activated basophils were defined as CCR3+, low side scatter and CD63+. Percent of activated basophils was calculated as number of activated basophils over the total number of basophils. A four-parameter logistic regression was applied to determine the EC50 and EC90.
Blood samples were gently rocked at room temperature for 2 hours. […] Activated basophils were also defined as CCR3+, low side scatter and CD203c+.

human mast cells = experiment: Antigen-induced degranulation (CD63 and histamine) in ISM-like human mast cells; assay type: cell-based; details: six healthy donors, treated two hours
Experimental: as §1
Human mast cells were differentiated from bone marrow CD34+ cells from six healthy donors, cultured and sensitized as set forth in Example 4. […] The median fluorescence intensity of phosphorylated BTK was measured. CD63 and histamine levels in these cells were measured and percent activated mast cells were calculated as set forth in Example 4. The percent of stimulated control for pBTK, activated mast cells (CD63+) and histamine levels was calculated. […]

IL-4 = experiment: Anti-IgE induced IL-4 production from basophils in whole blood; assay type: cell-based, human; details: whole blood from a healthy donor, treated two hours, anti-IgE six hours
Experimental: Human mast cells lines, ROSA with wildtype KIT and ROSA […] with D816V KIT mutation (ISM-like cells), were licensed from CRNS Innovation and cultured with or without stem cell factor (100 ng/mL), respectively (FIG. 12A). ROSA cells were stimulated with IL-4 (20 ng/mL; R&D Systems) for 18 hours, stained for FcεRIα(Becton Dickinson) for 30 minutes on ice, washed twice with FACS buffer and data was acquired on a flow cytometer. The median fluorescence intensity of FcεRIα was measured. […] Whole blood from a healthy donor was treated with Compound 128 for two hours and the basophils were stimulated with anti-IgE (1 μg/mL; Beckman Coulter) for six hours (FIG. 12B). Plasma was collected and IL-4 levels were measured using the BD CBA human soluble protein master buffer kit and BD CBA human soluble protein flex set for IL-4 (Becton Dickinson). A four-parameter logistic regression analysis was performed on the cytokine levels to determine the EC50 and EC90. […] Therefore, Compound 128 may indirectly effect FcεRI expression by the reduction of IL-4 levels.

With `C=CC(=O)N1CCC(F)(CNc2ncnc(N)c2-c2ccc(Oc3ccccc3)cc2)CC1` [Compound 128, 1-(4-(((6-amino-5-(4-phenoxyphenyl)pyrimidin-4-yl)amino)methyl)-4-fluoropiperidin-1-yl)prop-2-en-1-one] the “phosphorylation (pBTK, pPLCγ1, pP38, pERK, pS6) and degranulation (CD63, CD203c, histamine)” value (mast cells [1]) was “decrease to near basal levels”, the “activation of multiple downstream signaling proteins” value [2] was “can be inhibited” and the IgE-mediated cytokine production [3] was “inhibited”. For the same compound, the “inhibition of IgE-mediated calcium influx” value [4] was “potently inhibits”, the “time to restoration of degranulation after inhibition” value (mast cells [5]) was ≤ 24 h and the “effect on basophil activation (CD63+, CD203c+)” value (basophils) was “fully inhibits basophil activation”. The “inhibition of IgE-mediated degranulation (CD63 and histamine)” value (human mast cells) was “potently inhibits” and the “IgE-mediated IL-4 production” value (IL-4) was “potently inhibited”.
